Earlier results as cited in PMC7451048 (Drug metabolism letters, 2019).

Assays:
[1] = biological target: P-gp (Homo sapiens, UniProt P08183); details: read-out: Km for P-gp; membrane vesicles isolated from human placenta; ref [61]; cited from earlier work
[2] = co-administration of clopidogrel and ticlopidine; ref [25]; cited from earlier work
[3] = biological target: T1, BCRP (Homo sapiens, UniProt Q9UNQ0); details: read-out: Km for BCRP; membrane vesicles isolated from human placenta; ref [61]; cited from earlier work
T1 sequence (Q9UNQ0 1-655): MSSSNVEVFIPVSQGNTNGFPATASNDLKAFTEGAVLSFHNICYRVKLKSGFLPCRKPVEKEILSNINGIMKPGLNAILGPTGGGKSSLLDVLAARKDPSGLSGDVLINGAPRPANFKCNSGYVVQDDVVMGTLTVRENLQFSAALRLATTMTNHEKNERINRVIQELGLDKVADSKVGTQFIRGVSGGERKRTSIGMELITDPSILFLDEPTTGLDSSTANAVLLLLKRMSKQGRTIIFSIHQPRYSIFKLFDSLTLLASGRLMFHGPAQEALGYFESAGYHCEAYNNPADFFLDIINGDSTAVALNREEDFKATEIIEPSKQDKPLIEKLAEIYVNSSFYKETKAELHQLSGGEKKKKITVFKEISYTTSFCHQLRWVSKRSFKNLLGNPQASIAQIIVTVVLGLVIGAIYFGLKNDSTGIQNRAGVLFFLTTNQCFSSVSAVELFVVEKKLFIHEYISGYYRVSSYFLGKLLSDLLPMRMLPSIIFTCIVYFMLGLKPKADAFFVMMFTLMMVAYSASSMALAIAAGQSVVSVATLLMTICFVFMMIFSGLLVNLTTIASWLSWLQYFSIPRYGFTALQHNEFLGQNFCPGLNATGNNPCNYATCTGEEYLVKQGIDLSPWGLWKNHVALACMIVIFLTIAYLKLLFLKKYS

Chain of P-gp (P08183 whole entry): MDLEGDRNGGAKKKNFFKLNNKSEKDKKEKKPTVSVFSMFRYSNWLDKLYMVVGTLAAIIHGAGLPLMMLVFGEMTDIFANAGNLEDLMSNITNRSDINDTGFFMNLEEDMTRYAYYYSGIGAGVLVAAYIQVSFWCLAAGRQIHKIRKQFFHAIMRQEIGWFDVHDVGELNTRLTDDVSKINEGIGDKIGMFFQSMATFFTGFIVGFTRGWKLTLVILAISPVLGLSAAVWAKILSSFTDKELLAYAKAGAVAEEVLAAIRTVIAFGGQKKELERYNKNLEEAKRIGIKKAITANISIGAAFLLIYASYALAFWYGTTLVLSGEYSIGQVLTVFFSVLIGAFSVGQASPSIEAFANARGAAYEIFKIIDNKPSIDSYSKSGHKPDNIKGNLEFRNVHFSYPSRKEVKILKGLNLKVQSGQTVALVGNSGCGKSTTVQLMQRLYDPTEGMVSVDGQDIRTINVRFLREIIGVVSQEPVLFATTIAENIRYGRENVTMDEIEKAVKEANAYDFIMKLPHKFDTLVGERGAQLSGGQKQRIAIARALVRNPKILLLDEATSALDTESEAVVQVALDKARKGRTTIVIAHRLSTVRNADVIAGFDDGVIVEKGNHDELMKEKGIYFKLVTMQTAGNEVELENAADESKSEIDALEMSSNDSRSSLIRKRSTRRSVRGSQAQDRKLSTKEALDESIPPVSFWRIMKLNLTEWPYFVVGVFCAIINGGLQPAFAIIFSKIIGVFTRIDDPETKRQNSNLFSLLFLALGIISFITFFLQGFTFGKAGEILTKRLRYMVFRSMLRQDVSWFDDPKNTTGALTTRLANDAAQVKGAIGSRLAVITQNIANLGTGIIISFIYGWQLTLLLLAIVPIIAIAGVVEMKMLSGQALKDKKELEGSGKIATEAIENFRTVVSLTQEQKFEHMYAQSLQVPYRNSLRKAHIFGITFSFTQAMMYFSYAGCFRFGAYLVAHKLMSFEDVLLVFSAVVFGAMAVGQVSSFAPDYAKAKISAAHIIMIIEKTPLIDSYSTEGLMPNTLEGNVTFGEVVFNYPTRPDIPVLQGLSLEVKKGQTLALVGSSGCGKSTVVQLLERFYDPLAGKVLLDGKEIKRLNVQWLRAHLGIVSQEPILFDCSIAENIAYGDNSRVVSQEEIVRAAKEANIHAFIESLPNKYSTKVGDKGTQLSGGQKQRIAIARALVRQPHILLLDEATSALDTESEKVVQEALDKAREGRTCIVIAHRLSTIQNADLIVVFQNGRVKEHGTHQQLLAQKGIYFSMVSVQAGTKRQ

## CC(NC(C)(C)C)C(=O)c1cccc(Cl)c1 (stereo not shown) [BUP, Bupropion]
[1]
  Km: 0.5 µM
[2]
  Difference in half-life: no significant difference
  Increase in systemic exposure (AUC): 36–61%
[3]
  Km: 3 µM
